Structures can show the parent of a compound that is named as a salt.
Experiments:
[1] = Evaluation of a conversion rate to 2-acetylnaphtho[2,3-b]furan-4,9-dione in human plasma; assay type: in vitro ADME; conditions: 1 umol/L
Description: (§1) For test compounds, the decrease rate of the test compounds and the conversion rate thereof to 2-acetylnaphtho[2,3-b]furan-4,9-dione in human plasma, CD1 mouse plasma, and pH 7.4 phosphate buffer solution were measured.
(§2) Test compounds were incubated at the concentration of 1 umol/L in human plasma (cat. no. 12250210, COSMO BIO), CD1 mouse plasma (cat. no. AP3054, KAC), and phosphate buffer solution at 37° C., and removed at predetermined times (0, 5, 10, 30, 60, and 120 minutes). After protein-removing treatment was performed, they are analyzed with LC-MS. It should be noted that the protein-removing treatment used acetonitrile containing: 10% volume of 1 mol/L hydrochloric acid; 1% volume of 46% citric acid; and phenytoin as an internal standard.
(§3) The measurement condition of LC-MS is as described below. LC-MS condition column: Kinetex 2.6 u PFP 100 A 50×2.1 mm Column temperature: 40° C.
(§4) Mobile phase: A: 0.1% formic acid-containing water
(§5) • B: 0.1% formic acid-containing acetonitrile A/B(min): 95/5(0)→5/95(3)→5/95(4)→95/5(4.1)→95/5(6) Flow rate: 0.4 mL/min Detection: ESI (positive mode) Injection volume: 10 uL
In the same way as Example 6, the incubation time was set as 120 minutes later, and the conversion rate of each of various test compounds to 2-acetylnaphtho[2,3-b]furan-4,9-dione in human plasma, CD1 mouse plasma, and pH 7.4 phosphate buffer solution was measured.

[2] = Evaluation of a conversion rate to 2-acetylnaphtho[2,3-b]furan-4,9-dione in pH 7.4 phosphate buffer solution; assay type: physicochemical; conditions: Phosphate buffer solution (pH 7.4), 1 umol/L, 37° C., incubation time 120 min
Description: as §1, §2, §3, §4, §5
(§6) Measurement values are calculated from the peak area ratio in LC-MS between an internal standard material, phenytoin and an active form, 2-acetylnaphtho[2,3-b]furan-4,9-dione, and are expressed in %.
(§7) In the same way as Example 6, the incubation time was set as 120 minutes later, and the conversion rate of each of various test compounds to 2-acetylnaphtho[2,3-b]furan-4,9-dione in human plasma, CD1 mouse plasma, and pH 7.4 phosphate buffer solution was measured. A series of the present compounds were confirmed to be converted to 2-acetylnaphtho[2,3-b]furan-4,9-dione in pH 7.4 phosphate buffer solution in addition to human plasma and CD1 mouse plasma. Therefore, a series of the test compounds of the present invention were confirmed to be converted to the activated form via a route other than an enzymatic conversion.

[3] = Evaluation of a conversion rate to 2-acetylnaphtho[2,3-b]furan-4,9-dione in CD1 mouse plasma; assay type: in vitro ADME; conditions: 1 umol/L
Description: as §1, §2, §3, §4, §5, §6, §7

Solubility test = conditions: 50 mmol/L glycine buffer solution (pH 2.0), room temperature, 24 hours shaking
Description: A water-soluble prodrug was added into 50 mmol/L glycine buffer solution (pH 2.0). After shaking at room temperature for 24 hours, the mixture was filtered through a membrane filter, and then the filtrate was measured with HPLC.
The measurement condition of HPLC is as described below. HPLC condition column: Acquity UPLC BEH C18, 1.7 um, 50×2.1 mm
Mobile phase: A: 0.1% trifluoroacetic acid-containing water

[4] = Human plasma, 37° C., incubation time 120 min
[5] = CD1 mouse plasma, 37° C., incubation time 120 min

| Compound | % Measurement value (conversion rate to 2-acetylnaphtho[2,3-b]furan-4,9-dione) [1, 4] | % Measurement value (conversion rate to 2-acetylnaphtho[2,3-b]furan-4,9-dione) [2] | % Measurement value (conversion rate to 2-acetylnaphtho[2,3-b]furan-4,9-dione) [3, 5] | % Measurement value (conversion rate to 2-acetylnaphtho[2,3-b]furan-4,9-dione) ([1]; human, 120 min) | % Measurement value (conversion rate to 2-acetylnaphtho[2,3-b]furan-4,9-dione) ([3]; CD1, mouse, 120 min) | Solubility in pH 2.0 buffer solution (Solubility test) |
| --- | --- | --- | --- | --- | --- | --- |
| CC(=O)c1cc2c(OC(=O)NCC[C@H](N)C(=O)O)c3ccccc3c(OC(=O)NCC[C@H](N)C(=O)O)c2o1.Cl.Cl [Example 12] | 63% | 63% | 78% | – | – | – |
| CC(=O)c1cc2c(OC(=O)OCCCCN)c3ccccc3c(OC(=O)OCCCCN)c2o1 [Example 21, 2-Acetylnaphtho[2,3-b]furan-4,9-diyl bis(4-aminobutyl)bis(carbonate)dihydrochloride] | – | 24% | – | 40% | 44% | – |
| CC(=O)c1cc2c(OC(=O)NCCCCN)c3ccccc3c(OC(=O)NCCCCN)c2o1.Cl.Cl [Example 13] | 95% | 13% | 50% | – | – | – |
| CC(=O)c1cc2c(O)c3ccccc3c(OC(=O)NCCCNCCS(=O)(=O)N(C)C)c2o1.Cl [Example 80] | 54% | 32% | – | – | – | 1.0 mg/mL |
| CC(=O)c1cc2c(O)c3ccccc3c(OC(=O)NCCNCCOC(N)=O)c2o1.Cl [Example 87] | 38% | 36% | – | – | – | 4.0 mg/mL |
| CC(=O)c1cc2c(OC(=O)NCCCNCC(=O)NCC(=O)O)c3ccccc3c(OC(=O)NCCCNCC(=O)NCC(=O)O)c2o1.Cl.Cl [Example 64] | 57% | 40% | – | – | – | >5.0 mg/mL |
| CC(=O)c1cc2c(OC(=O)NCCCNCCOC(N)=O)c3ccccc3c(OC(=O)NCCCNCCOC(N)=O)c2o1.Cl.Cl [Example 66] | 59% | 44% | – | – | – | >5.0 mg/mL |
| CC(=O)c1cc2c(OC(=O)NCCNCCN)c3ccccc3c(OC(=O)NCCNCCN)c2o1.Cl.Cl [Example 46] | 59% | 54% | – | – | – | >5.0 mg/mL |
| CC(=O)c1cc2c(OC(=O)NCCNCC(=O)N3CCC3)c3ccccc3c(OC(=O)NCCNCC(=O)N3CCC3)c2o1.Cl.Cl [Example 62] | 65% | 37% | – | – | – | >5.0 mg/mL |
| CC(=O)c1cc2c(OC(=O)NCCCNCC(F)(F)F)c3ccccc3c(OC(=O)NCCCNCC(F)(F)F)c2o1.Cl.Cl [Example 53] | 100% | 41% | – | – | – | >5.0 mg/mL |
| CC(=O)c1cc2c(OC(=O)NCCCNCCN)c3ccccc3c(OC(=O)NCCCNCCN)c2o1.Cl.Cl [Example 52] | 78% | 55% | – | – | – | >5.0 mg/mL |
| CC(=O)c1cc2c(OC(=O)NCCNCc3ccccc3)c3ccccc3c(OC(=O)NCCNCc3ccccc3)c2o1.Cl.Cl [Example 55] | 86% | 63% | – | – | – | >5.0 mg/mL |
| COC(=O)CNCCCNC(=O)Oc1c2ccccc2c(OC(=O)NCCCNCC(=O)OC)c2oc(C(C)=O)cc12.Cl.Cl [Example 47] | 92% | 65% | – | – | – | >5.0 mg/mL |
| COC(=O)NCCNCCCNC(=O)Oc1c2ccccc2c(OC(=O)NCCCNCCNC(=O)OC)c2oc(C(C)=O)cc12.Cl.Cl [Example 68] | 73% | 59% | – | – | – | >5.0 mg/mL |
| CC(=O)c1cc2c(O)c3ccccc3c(OC(=O)NCCNCCS(C)(=O)=O)c2o1.Cl [Example 81] | 74% | 27% | – | – | – | 0.9 mg/mL |
| CC(=O)c1cc2c(OC(=O)NCCNCCS(=O)(=O)N(C)C)c3ccccc3c(OC(=O)NCCNCCS(=O)(=O)N(C)C)c2o1.Cl.Cl [Example 57] | 68% | 34% | – | – | – | >5.0 mg/mL |
| CC(=O)c1cc2c(OC(=O)NCCCNCCS(=O)(=O)N(C)C)c3ccccc3c(OC(=O)NCCCNCCS(=O)(=O)N(C)C)c2o1.Cl.Cl [Example 59] | 81% | 66% | – | – | – | >5.0 mg/mL |
| COC(=O)OCCNCCCNC(=O)Oc1c2ccccc2c(O)c2cc(C(C)=O)oc12.Cl [Example 92] | 34% | 26% | – | – | – | >5.0 mg/mL |
| Dimethyl 4,4′-((((2-acetylnaphtho[2,3-b]furan-4,9-diyl)bis(oxy))bis(carbonyl))bis-(azanediyl))(2S,2′S)-bis(2-aminobutanoate)dimethanesulfonate salt [Example 104] | 82% | 57% | – | – | – | >5.0 mg/mL |
| CCC(NCCNC(=O)Oc1c2ccccc2c(OC(=O)NCCNC(CC)C(=O)O)c2oc(C(C)=O)cc12)C(=O)O.Cl.Cl (stereo not drawn) [Example 51] | 70% | 55% | – | – | – | 0.1 mg/mL |

Source: patent publication US10800752B2, “Substituted naphtho[2,3-b]furans as water-soluble prodrugs for preventing and/or treating cancer” (BOSTON BIOMEDICAL, INC., priority 2015, dated 2020)
